Reference: article PMC11325505, “Nitrogen-Containing Flavonoids—Preparation and Biological Activity” (ACS Omega, 2024)
Converted amounts (≈) assume the structure as drawn. “And” between values parts separate entries of the source, which are not always exact repeats. Equal entries are not always repeated. Where two headings read alike, the source gives them in different places.

What was measured:
RAW 264.7 cells = test: Cellular antioxidant activity (CAA); assay type: cell-based, Murine; conditions: for IC50: Mus musculus, RAW264.7, macrophages RAW 264.7, average of four repetitions ± standard error of the mean
Protocol: To evaluate the antioxidant activity of the prepared derivatives and the respective parent compounds, cellular antioxidant activity (CAA) was measured in macrophages. Compared to other in vitro antioxidant assays, this method provides partial information about the uptake and metabolism of the compounds, because, in this assay, they must first enter the cell to exert antioxidant activity.[31] […] Derivatization of quercetin at C-8 with 4-fluoroaniline (5) increased the antioxidant activity of quercetin by 1.7-fold. […] The concentration of these derivatives required to halve the cellular radicals decreased 1.5-fold compared to luteolin.
Cellular antioxidant capacity was evaluated as previously described.[31],[39] Briefly, 100 μL of RAW 264.7 cells with a density corresponding to 1 × 10^6 cells/mL were split into 96-well plates. After 24 h, cells were washed with PBS, and DMEM supplemented with DCFH-DA (0.0125 mg/mL) was added to each well together with the tested samples in the concentration range of 1.5–200 μM. After 1 h incubation in a CO2 incubator, the medium was replaced with AAPH solution (0.16 mg/mL in PBS), and fluorescence was immediately recorded (ex./em. 485/540 nm) for 2 h in 5 min intervals.

[1] = test system: human dermal fibroblasts (HDF); test: Cytotoxicity (resazurin assay), fibroblasts; assay type: cell-based; conditions: Homo sapiens, Fibroblast, 72 h, read-out: HDF IC50 (concentration that halved the viability)
Protocol: The cytotoxicity of the prepared derivatives was evaluated by their ability to decrease the viability of immortalized human keratinocytes (HaCaT) and human dermal fibroblasts (HDF).
100 μL of cell suspension containing 10^5 cells/mL was pipetted into a 96-well plate. After 24 h incubation, the tested compounds were added in the concentration range 12.5–200 μM. After 72 h incubation, the cell viability was tested by standard resazurin assay.[41] Briefly, the cells were washed with PBS and incubated with 100 μL of resazurin solution (0.025 mg/mL) for 2 h. The fluorescence was measured at a wavelength of 560 nm excitation/590 nm emission.

[2] = test system: Staphylococcus aureus MRSA 9; test: Modulation of antibiotic-resistant phenotype (flavonoid plus breakpoint concentration of antibiotic); assay type: cell-based; conditions: MIC determined as IC70, three repetitions ± SEM; for minimum inhibitory concentration (MIC) in the presence of erythromycin: erythromycin at breakpoint concentration 1 mg/L; for minimum inhibitory concentration (MIC) in the presence of gentamicin: gentamicin at breakpoint concentration 1 mg/L
Protocol: (§1) To evaluate the ability to modulate bacterial resistance, the tested flavonoids themselves cannot exert antimicrobial activity; therefore, the nontoxic concentration was used, as indicated in Table S5. Clinically relevant antibiotics were selected at breakpoint concentrations for susceptibility testing according to the European Committee on Antimicrobial Susceptibility Testing (EUCAST, version 11.0). […] Flavonoids and their derivatives (from 1 μM to the highest nontoxic concentration) were used in combination with the breakpoint concentration of the antibiotics. After coincubation, the minimum inhibitory concentration (MIC) of flavonoids inhibiting the visible growth of bacteria was determined (Table 2).
(§2) Sensitization of multidrug-resistant clinical bacterial strains was performed according to ref[15]. Antibiotic cutoff concentration was chosen according to the European Committee on Antimicrobial Susceptibility Testing (EUCAST, Clinical breakpoints–bacteria, ver. 11.0). The 200 μM concentration of the derivatives was chosen as the highest test concentration. The absorbance detected at 600 nm was then used to estimate the number of viable cells after 24 h of incubation at 37 °C and 120 rpm.
(§3) Experiments were performed with the respective number of replicates indicated in each figure/table. MIC was determined as IC70. Both IC70 and IC50 values were calculated using the following nonlinear regression in the software GraphPad Prism: […]

[3] = test system: Methicilin-Resistant S. aureus 331 Strain; test: Mode of antimicrobial action with erythromycin, ermC-positive strain; assay type: cell-based; conditions: for MIC, erythromycin [1 mg/L] yes / MIC, erythromycin [1 mg/L] no: MRSA 331 (ermC); for MIC, erythromycin [1 mg/L] yes: with erythromycin 1 mg/L; for MIC, erythromycin [1 mg/L] no: without erythromycin; for FIC (Fractional Inhibitory Concentration Index): MRSA 331, with erythromycin
Text: (§4) Erythromycin is a macrolide antibiotic that inhibits proteosynthesis by binding to the 50S subunit of the ribosome. In Staphylococcus species, resistance to erythromycin is associated with the presence of methyltransferases (encoded by erm genes) that alter the ribosomal target site. Another typical mechanism of resistance to erythromycin is the presence of an ATP-dependent efflux pump encoded by the msr(A) gene or a major facilitator superfamily (MFS) pump encoded by the lmrS gene. Both efflux pumps reduce the concentration of erythromycin in the cell below the therapeutic dose by transporting it across the membrane to the extracellular space. Another erythromycin resistance gene is the mph(C) gene, the product of which is a phosphotransferase that alters the structure of macrolide antibiotics. To elucidate the mechanism of erythromycin resistance modulation in S. aureus, further tests were performed with the strains MRSA 331 and MRSA 3596, which inactivate erythromycin via a single mechanism (ermC and ermA, respectively). […] Therefore, if the activity was not strain-specific, it would be necessary to consider the effect of the derivatives on this pump (Table 3).
as §2, §3

MRSA 3596 = test: Mode of antimicrobial action with erythromycin or gentamicin, ermA- and aadD-positive strain; assay type: cell-based, S. aureus; conditions: for MIC, Gentamicin [1 mg/L] yes / MIC: MRSA 3596 (aadD); for MIC, Gentamicin [1 mg/L] yes: with gentamicin 1 mg/L; for MIC, erythromycin [1 mg/L] yes / MIC, erythromycin [1 mg/L] no: MRSA 3596 (ermA); for MIC, erythromycin [1 mg/L] yes: with erythromycin 1 mg/L; for MIC, erythromycin [1 mg/L] no: without erythromycin, Table 4; for MIC: Staphylococcus aureus, 24 h, read-out: MIC, Gentamicin [1 mg/L] no, without gentamicin, Table S6
Text: as §4
Among the mechanisms of resistance to gentamicin previously described in S. aureus, the presence of enzymes that alter the structure of aminoglycosides is crucial. These enzymes can transfer nucleotides, phosphates, or acetyls to various −OH or −NH2 groups of gentamicin, preventing its subsequent interaction with the cellular target, i.e., the 30S ribosomal subunit. The bifunctional aminoglycoside-modifying enzyme with acetylation and phosphotransferase activities encoded by the gene aac(6’)/aph(2’), 4′,4″ adenyltransferase encoded by the aadD gene, and aminoglycoside O-phosphotransferase encoded by the gene aph(3′) are the most important.[37] […] For this reason, further testing continued using strains MRSA 3596 and MRSA 1584, which inactivate gentamicin only by a single mechanism (aadD and aac(6’)-aph(2’’), respectively).
as §2, §3

S. aureus CCM 4223 = test: Antibacterial activity, antibiotic-sensitive strain; assay type: cell-based; conditions: Staphylococcus aureus, CCM4223, three repetitions ± SEM
S. aureus MRSA 9 = test: Antibacterial activity, multidrug-resistant strain; assay type: cell-based; conditions: Staphylococcus aureus, MRSA; multidrug-resistant strain; three repetitions ± SEM
Protocol: as §1, §2, §3

SMILES | IC50 (RAW 264.7 cells) [µM] | IC50 [1] [µM] | minimum inhibitory concentration (MIC) in the presence of erythromycin [2] | minimum inhibitory concentration (MIC) in the presence of gentamicin [2] | MIC, erythromycin [1 mg/L] yes [3] [µM] | MIC, erythromycin [1 mg/L] no [3] [µM] | FIC (Fractional Inhibitory Concentration Index) [3] | MIC, Gentamicin [1 mg/L] yes (MRSA 3596) [µM] | MIC, erythromycin [1 mg/L] yes (MRSA 3596) [µM] | MIC, erythromycin [1 mg/L] no (MRSA 3596) [µM] | FIC (Fractional Inhibitory Concentration Index) (MRSA 3596; MRSA 3596, with erythromycin) | MIC (MRSA 3596) [µM] | IC50 (S. aureus CCM 4223) [µM] | IC50 (S. aureus MRSA 9) [µM] | IC50 ([1]; 72 h incubation, resazurin, average of three repetitions ± SEM) [µM] | effect (mode of action with erythromycin) (MRSA 3596; MRSA 3596) | effect (mode of action with gentamicin) (MRSA 3596; MRSA 3596) | FIC (Fractional Inhibitory Concentration Index) (MRSA 3596; MRSA 3596, with gentamicin) | change of antioxidant activity compared to the parent compound, in words (RAW 264.7 cells; CAA in macrophages)
O=c1cc(-c2ccc(O)c(O)c2)oc2c(Nc3ccc(F)cc3)c(O)cc(O)c12 [compound 11, 2-(3,4-Dihydroxyphenyl)-8-(4-fluoroanilino)-5,7-dihydroxy-4H–1-benzopyran-4-one] | 2.9 ± 0.2 | 51.9 ± 3.7 | >25 ^note 4 μM | 7.9 µM and 7.9 ± 0.5 µM | 57.4 ± 0.2 (≈ 22.7 µg/mL) | 57.6 ± 0.2 (≈ 22.8 µg/mL) | 1.00 ± 0.01 | > 200 | 28.0 ± 0.5 (≈ 11.1 µg/mL) | 32.9 ± 0.6 (≈ 13 µg/mL) | 0.85 ± 0.03 | > 200 | 42 ± 1.2 | 38 ± 1.2 |  |  |  |  | 
COc1ccc(Nc2c(O)cc(O)c3c(=O)cc(-c4ccc(O)c(O)c4)oc23)cc1 [compound 12, 2-(3,4-Dihydroxyphenyl)-8-(4-methoxyanilino)-5,7-dihydroxy-4H–1-benzopyran-4-one] | 3.4 ± 0.1 |  | 76.3 µM and 76.3 ± 1.9 µM | 44.0 ± 1.6 µM | 54.8 ± 0.4 (≈ 22.3 µg/mL) | 54.4 ± 2.1 (≈ 22.2 µg/mL) | 1.01 ± 0.05 | 31.4 ± 1.0 (≈ 12.8 µg/mL) | 20.0 ± 0.6 (≈ 8.15 µg/mL) | 53.6 ± 0.5 (≈ 21.8 µg/mL) | 0.37 ± 0.01 | 91 ± 0.9 (≈ 37.1 µg/mL) | 54 ± 0.1 | 112 ± 1.2 | 35.5 ± 1.5 | synergy (Fractional Inhibitory Concentration Index (FIC) < 0.5 indicates synergism) | synergy (Fractional Inhibitory Concentration Index (FIC) < 0.5 indicates synergism) | 0.34 ± 0.01 | 
O=c1cc(-c2ccc(O)c(O)c2)oc2c(Nc3ccc(C(F)(F)F)cc3)c(O)cc(O)c12 [compound 14, 2-(3,4-Dihydroxyphenyl)-8-(4-(trifluoromethyl)anilino)-5,7-dihydroxy-4H–1-benzopyran-4-one] | > 12.5 | 29.9 ± 1.1 | >15 ^note 5 μM |  | 27.0 ± 1.5 (≈ 12 µg/mL) | 27.0 ± 5.1 (≈ 12 µg/mL) | 1.00 ± 0.25 | > 200 | 29.9 ± 1.4 (≈ 13.3 µg/mL) | 14.4 ± 0.1 (≈ 6.41 µg/mL) | 2.07 ± 0.11 | > 200 | 15.3 ± 0.7 | 24 ± 0.1 |  | antagonism (≥2 indicates antagonism) |  |  | significantly decreased the antioxidant activity
